Assay results reported in patent US20110190503A1, “Thiazolopyridin-2-yloxy-phenyl and thiazolopyrazin-2-yloxy-phenyl amines as modulators of leukotriene A4 hydrolase” (Janssen Pharmaceutical NV, priority 2008, published 2011).
Where a name gives a salt, the structure may show the parent alone.

Key:
[1] = test system: bronchial hyperresponsiveness; conditions: human asthma; cited from earlier work
pruritus = conditions: Sjogren-Larsson syndrome patients; cited from earlier work
atopic dermatitis = conditions: small, open-label clinical trials; cited from earlier work
[2] = severe asthmatics; cited from earlier work
[3] = test system: LTB4 production by calcium ionophore-stimulated murine blood; assay: LTB4 production by calcium ionophore-stimulated murine blood for LTA4H inhibitor activity; format: cell-based, CD-1 mice; conditions: Mus musculus; murine blood diluted 1 in 15, calcium ionophore A23187, LTB4 by immunoassay; read-out: IC50
Procedure, shortened: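 Heparinized CD-1 mouse blood pre-incubated with compound 15 min at 37° C, then stimulated with calcium ionophore A23187 (7 μg/mL final) for 30 min. LTB4 in supernatant measured by enzyme immunoassay; values are single or averaged determinations, with SD for n≥3.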

[4] = test system: LTB4 production by calcium ionophore-stimulated human blood; assay: LTB4 production by calcium ionophore-stimulated human blood for LTA4H inhibitor activity; format: cell-based; conditions: human blood diluted 1:1, calcium ionophore A23187, LTB4 by immunoassay; n in parentheses; read-out: IC50
Method: Assay 3: LTB4 Production by Calcium Ionophore-Stimulated Human Blood for LTA4H Inhibitor Activity
Human blood was collected from healthy donors in heparin-containing syringes. The blood was diluted 1:1 with RPMI-1640 medium, and 200-μL aliquots of the diluted blood were added to wells of a 96-well microtiter plate. LTA4H inhibitor test compounds were prepared at different concentrations in RPMI-1640 medium containing 1% DMSO, and 20 μL of each test solution was added to a well containing diluted whole blood (final DMSO concentration of 0.1%). After the microtiter plate contents were incubated for 15 min at 37° C. in a humidified incubator, calcium ionophore A23187 (Sigma Chemical Co., St. Louis, Mo.) was added to each sample well (final concentration=7 μg/mL). The incubation was continued under the same conditions for an additional 30 min to allow LTB4 formation. The reaction was terminated by centrifugation (833×g, 10 min at 4° C.), and supernatants were analyzed for LTB4 by a commercially available enzyme-linked immunoassay (Cayman Chemical Co.) according to the manufacturer's instructions. Positive controls, under essentially identical conditions but without addition of an inhibitor compound, and negative unstimulated controls, containing all assay components except calcium ionophore, were routinely run in each experiment. IC50 values for compounds tested in this assay were determined by nonlinear regression of the activity data at different compound concentrations using Graphpad Prism 4.0, one site binding competition, and are presented in Table 3. The number of determinations made is indicated in parentheses following each value.

[5] = molecular target: T1, recombinant human LTA4 hydrolase (rhLTA4H) (Homo sapiens, UniProt P09960); assay: Recombinant human LTA4 hydrolase assay for LTA4 hydrolase inhibitor activity; format: biochemical; conditions: rhLTA4H, LTA4 substrate, LTB4 by immunoassay; single determination or average; read-out: IC50
T1 construct: made in house; host or cells: Spodoptera frugiperda (Sf-9) cells, recombinant baculovirus (pFastBac1)
T1 sequence (P09960 1-611): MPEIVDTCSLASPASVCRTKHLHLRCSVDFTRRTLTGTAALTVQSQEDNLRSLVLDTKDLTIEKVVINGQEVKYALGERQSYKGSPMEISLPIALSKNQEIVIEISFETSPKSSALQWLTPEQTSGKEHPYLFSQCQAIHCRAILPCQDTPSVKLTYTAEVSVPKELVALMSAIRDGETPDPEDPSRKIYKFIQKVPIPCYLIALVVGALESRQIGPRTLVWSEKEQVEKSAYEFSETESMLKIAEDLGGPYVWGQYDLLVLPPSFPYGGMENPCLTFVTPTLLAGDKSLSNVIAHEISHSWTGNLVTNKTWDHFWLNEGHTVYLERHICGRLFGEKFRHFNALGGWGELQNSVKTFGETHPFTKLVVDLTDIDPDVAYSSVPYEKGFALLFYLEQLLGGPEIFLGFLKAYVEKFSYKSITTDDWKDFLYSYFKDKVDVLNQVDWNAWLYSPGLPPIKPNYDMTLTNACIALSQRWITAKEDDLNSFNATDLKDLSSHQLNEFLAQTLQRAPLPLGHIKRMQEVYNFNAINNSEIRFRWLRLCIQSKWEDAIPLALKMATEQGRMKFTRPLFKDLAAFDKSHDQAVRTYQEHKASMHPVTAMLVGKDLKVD
Procedure, shortened: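 Recombinant human LTA4H from baculovirus-infected Sf-9 cells (10 ng) pre-incubated 10 min at rt with compound (10% DMSO in dilutions), then reacted with free-acid LTA4 for 30 min at rt. LTB4 measured by ELISA; IC50 by nonlinear regression. Values are single determinations or averages.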

[6] = test system: ionophore-induced LTB4 production; conditions: oral administration; cited from earlier work
[7] = test system: ionophore-induced LTB4 production; conditions: oral administration; cited from earlier work; remark: listed apart in the source
colitis symptoms = conditions: eight weeks of treatment, cotton top tamarins; cited from earlier work
[8] = test system: airway hyperresponsiveness; conditions: primate model; cited from earlier work
neutrophil influx = assay: Murine arachidonic acid-induced inflammation model: neutrophil influx in ear, myeloperoxidase activity (% Inh. MPO); format: in vivo; conditions: Mus musculus, female Balb/c mice, 30 mg/kg oral gavage, ear biopsy 3 h after topical arachidonic acid, number of determinations in parentheses
Method: (§1) Assay 4: Murine Arachidonic Acid-Induced Inflammation Model
(§2) LTA4H inhibitor compounds of the present invention were dissolved in 20% cyclodextran/H2O at a concentration of 3 mg/mL. The solutions were administered by oral gavage to female Balb/c mice weighing approximately 20 grams each (0.2 mL per mouse, 30 mg of LTA4H inhibitor compound per kg). Sixty minutes after being administered an LTA4 inhibitor, each mouse received topical application of 20 μL of arachidonic acid (100 mg/mL in acetone) to the left ear and 20 μL of acetone only to the right ear. After 3 h, the mice were sacrificed, blood was withdrawn in heparinized syringes, and 8 mm ear biopsies were taken. Ear biopsies were weighed to determine edema and then frozen at −80° C. until needed for determination of neutrophil influx.
Neutrophil influx was quantified by measuring the activity of myeloperoxidase (MPO), a neutrophil-specific enzyme. The ear biopsies were homogenized in 0.5 mL extraction buffer (0.3 M sucrose, 0.22% (w/v) hexadecyl trimethyl ammonium bromide (CTAB), and 2.5 mM citrate prepared from 0.5 M citrate stock solution (pH 5.0)), in a Fast-Prep-24 (MP™) (40 seconds at 6 mps). Debris was removed by centrifugation at 14000×g for 10 min. Aliquots of 10 μL of the resulting supernatant were added to wells of a microtiter plate, along with 90-μL aliquots of dilution buffer (10 mM citrate, 0.22% CTAB), followed by addition of 20 μL TMB liquid substrate system (Sigma Chemical Co.) to each sample well. The microtiter plate contents were held at room temperature until the sample with the highest concentration of MPO reached an absorbance value of 0.4 at 650 nm. The reaction was stopped by addition of 50 μL 1 M H2SO4 to each sample well, and the myeloperoxidase activity in each sample was determined from the absorbance at 405 nm. The background value from the right ear, treated only with acetone, was subtracted from that for the left ear, treated with arachidonic acid in acetone, for each animal. The percent inhibition of neutrophil influx (% Inh. MPO) by compounds of the invention was determined by comparison to animals treated identically, except that the solution administered by oral gavage was devoid of inhibitor compound.
(§3) The number of determinations is indicated in parentheses following each value

[9] = test system: ex vivo stimulated LTB4 production; assay: Murine arachidonic acid-induced inflammation model: ex vivo stimulated LTB4 production (% Inh. LTB4); conditions: Mus musculus; female Balb/c mice, 30 mg/kg oral gavage; blood taken 3 h after arachidonic acid, ex vivo A23187 stimulation; number of determinations in parentheses
Method: as §1, §2
One hundred-microliter aliquots of heparinized blood were added to wells of a microtiter plate, along with equal volumes of RPMI-1640 medium, and calcium ionophore A23187 was added to each sample well (final concentration=[…]). The microtiter plate contents were incubated for 30 min at 37° C. in a humidified incubator. The reaction was terminated by centrifugation (833×g, 10 min at 4° C.). Supernatants were analyzed for LTB4 by a commercially available enzyme-linked immunoassay (Cayman Chemical Co.) in accordance with the manufacturer's instructions. The percent inhibition of ex vivo stimulated LTB4 production (% Inh. LTB4) was determined by comparison to animals treated identically except that the solution administered by oral gavage was devoid of inhibitor compound.
as §3

Row | SMILES | IC50 [3] | IC50 [5] | inhibition in vivo at 30 mg/kg (neutrophil influx) | inhibition at 30 mg/kg [9] | further results
1 | CC(c1cc2ccccc2s1)N(O)C(N)=O (centres unmarked) [zileuton] |  |  |  |  | bronchial hyperresponsiveness [1]: reduction of bronchial hyperresponsiveness; pruritus (pruritus): relieving the pruritus; effect in atopic dermatitis (atopic dermatitis): beneficial effects; quality of life [2]: significantly improve quality of life
2 | NC(=O)N1C[C@@H]2CC[C@H]1CN2Cc1ccc(Oc2nc3ncccc3s2)cc1 [Example 293, (1S,4S)-5-[4-([1,3]Thiazolo[4,5-b]pyridin-2-yloxy)benzyl]-2,5-diazabicyclo[2.2.2]octane-2-carboxamide formate] | 29 nM | 3 nM |  |  | IC50 [4]: 10 nM
3 | CN(CCCOc1ccc(Cc2ccccc2)cc1)CCC(=O)O.Cl [SC57461] |  |  |  |  | inhibition of ionophore-induced LTB4 production in rat peritoneum in vivo [6]: caused inhibition; inhibition of ionophore-induced LTB4 production in mouse blood ex vivo [7]: caused inhibition; colitis symptoms (colitis symptoms): significantly improved
4 | O=C(O)C1(c2ccc3c(c2)OC[C@H](Cc2ccc(-c4ccccc4)cc2)[C@H]3O)CCCC1 [CP-105,696] |  |  |  |  | airway hyperresponsiveness induced by multiple antigen challenges [8]: reduced airway hyperresponsiveness
5 | CC(C)(O)C1CCN(Cc2ccc(Oc3nc4ncccc4s3)cc2)CC1 [Example 89, 2-{1-[4-([1,3]Thiazolo[4,5-b]pyridin-2-yloxy)benzyl]piperidin-4-yl}propan-2-ol] | 110 nM | 42 nM | 79.1% | 79.5% | 
6 | CN(C)CCC1CCCCN1Cc1ccc(Oc2nc3ncccc3s2)cc1 (centres unmarked) [Example 258, N,N-Dimethyl-2-{1-[4-([1,3]thiazolo[4,5-b]pyridin-2-yloxy)benzyl]piperidin-2-yl}ethanamine] | 47 nM | 2 nM | 13.8% | 75% | 
7 | c1cnc2nc(Oc3ccc(CN4CCCC4)cc3)sc2c1 [Example 84, 2-[4-(Pyrrolidin-1-ylmethyl)phenoxy][1,3]thiazolo[4,5-b]pyridine] | 39 nM | 2.1 nM | 72% | 53.9% | 
8 | O=C1C[C@@H](O)CN1C1CCN(Cc2ccc(Oc3nc4ncccc4s3)cc2)CC1 [Example 269, (4R)-4-Hydroxy-1-{1-[4-([1,3]thiazolo[4,5-b]pyridin-2-yloxy)benzyl]piperidin-4-yl}pyrrolidin-2-one] | 77 nM | 3 nM | 90.6% | 84.4% | 
9 | CC(=O)N[C@@H]1C[C@H]2CC[C@@H](C1)N2CCc1ccc(Oc2nc3ncccc3s2)cc1 [Example 49, meso-N-[(3-exo)-8-{2-[4-([1,3]Thiazolo[4,5-b]pyridin-2-yloxy)phenyl]ethyl}-8-azabicyclo[3.2.1]oct-3-yl]acetamide] | 76 nM | 0.7 nM | 66% | 83% | 
10 | CC(=O)N[C@H]1C[C@H]2CC[C@@H](C1)N2CCc1ccc(Oc2nc3ncccc3s2)cc1 [Example 76, meso-N-[(3-endo)-8-{2-[4-([1,3]Thiazolo[4,5-b]pyridin-2-yloxy)phenyl]ethyl}-8-azabicyclo[3.2.1]oct-3-yl]acetamide] | 65 nM | 0.5 nM | 78.3% | 85.3% | 
11 | CC(=O)N[C@H]1C[C@H]2CC[C@@H](C1)N2Cc1ccc(Oc2nc3ncc(F)cc3s2)cc1 [Example 288] | 104 nM | 15 nM | 94.6% | 61.7% | 
12 | CC(=O)N1C[C@@H]2CC[C@H]1CN2Cc1ccc(Oc2nc3ncccc3s2)cc1 [Example 290, 2-(4-{[(1S,4S)-5-Acetyl-2,5-diazabicyclo[2.2.2]oct-2-yl]methyl}phenoxy)[1,3]thiazolo[4,5-b]pyridine] | 5 nM | 6 nM | 86.9% | 82.9% | 
13 | NC(=O)N1C[C@H]2C[C@@H]1CN2CCc1ccc(Oc2nc3ncccc3s2)cc1 [Example 80, (1R,4R)-5-{2-[4-([1,3]Thiazolo[4,5-b]pyridin-2-yloxy)phenyl]ethyl}-2,5-diazabicyclo[2.2.1]heptane-2-carboxamide] | 80 nM | 2 nM | 37% | 72.1% | 
